Results on 4 compounds are retold here after ChEMBL document CHEMBL1127203, “Janus compounds: dual inhibitors of proteinases” (Bioorg Med Chem Lett, 1993).

In one assay the target is Chymotrypsinogen A (Bos taurus, UniProt P00766). Briefly: The compound was tested for its potency to inhibit alpha-Chymotrypsin.
A further assay addresses T1, Cathepsin G (Homo sapiens, UniProt P08311).
T1 sequence (P08311 whole entry): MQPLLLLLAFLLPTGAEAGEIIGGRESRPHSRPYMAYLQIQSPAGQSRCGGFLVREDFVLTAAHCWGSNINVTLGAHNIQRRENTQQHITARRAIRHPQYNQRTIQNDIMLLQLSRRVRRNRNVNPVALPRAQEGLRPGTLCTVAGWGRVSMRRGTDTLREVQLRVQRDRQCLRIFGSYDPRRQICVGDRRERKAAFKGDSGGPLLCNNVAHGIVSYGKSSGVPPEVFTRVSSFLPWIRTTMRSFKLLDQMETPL
Put plainly: The compound was tested for its potency to inhibit human Cathepsin G.

The next assay concerns the target T2, Neutrophil elastase (Homo sapiens, UniProt P08246).
T2 sequence (P08246 whole entry): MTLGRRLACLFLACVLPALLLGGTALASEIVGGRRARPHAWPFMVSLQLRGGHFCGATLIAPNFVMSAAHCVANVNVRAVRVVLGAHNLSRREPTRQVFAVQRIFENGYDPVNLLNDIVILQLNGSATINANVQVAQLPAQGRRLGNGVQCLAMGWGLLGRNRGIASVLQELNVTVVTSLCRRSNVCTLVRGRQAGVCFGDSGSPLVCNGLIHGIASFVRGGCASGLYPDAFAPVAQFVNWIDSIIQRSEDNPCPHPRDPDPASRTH
Put plainly: The compound was tested for its potency to inhibit human neutrophil elastase activity.

Square brackets hold non-standard residues; d marks the D form. Peptide text beside a SMILES is read from it. * marks the point of attachment. ξ: configuration not given here. ξF = NC(Cc1ccccc1)C(=O)O; Boc = CC(C)(C)OC(=O)*; CF3 = FC(F)(F)*

Consider `CC(C)C(NC(=O)[C@@H]1CCCN1C(=O)[C@@H](NC(=O)c1ccc(C(=O)NC(Cc2ccccc2)C(=O)C(F)(F)F)cc1)C(C)C)C(=O)C(F)(F)C(F)(F)F` (some centres not stated), for which the Ki was 1200 nM at Chymotrypsinogen A, above 1000 µM at Cathepsin G and 4 nM on Neutrophil elastase.

Take `CC(C)C(NC(=O)[C@@H]1CCCN1C(=O)[C@@H](NC(=O)OC(C)(C)C)C(C)C)C(=O)C(F)(F)C(F)(F)F` (some centres not stated): the affinity at Neutrophil elastase, expressed as Ki, was 55 nM.

As for `CC(C)C(NC(=O)[C@@H]1CCCN1C(=O)[C@@H](NC(=O)c1ccc(C(=O)N[C@@H](C(=O)N2CCC[C@@H]2C(=O)NC(Cc2ccccc2)C(=O)C(F)(F)F)C(C)C)cc1)C(C)C)C(=O)C(F)(F)C(F)(F)F` (some centres not stated), the Ki at Cathepsin G amounted to 2.2 µM; on Neutrophil elastase, 15.9 nM.

Turning to `CC(C)[C@H](NC(=O)OC(C)(C)C)C(=O)N1CCC[C@H]1C(=O)NC(Cc1ccccc1)C(=O)C(F)(F)F` (stereo partly drawn) (Boc-Val-Pro-[ξF]-CF3), on Cathepsin G, the affinity, expressed as Ki, was 1.7 µM.

As a reminder, the Ki is a dissociation constant, usually derived from enzyme kinetics or from competition with a known ligand. A high value points to weaker binding.
